{"source": "patent US20230094545A1", "about": "“S1P RECEPTOR MODULATORS” (AKAAL PHARMA PTY LTD, priority 2020, published 2023)", "key": {"[1]": {"test": "Solubility in water / precipitation in buffer", "type": "physicochemical", "procedure": "To solubilize the free base in water the novel technology AvignaSOL (N,N-Dimethyl hexanamide; patent number: U.S. Pat. No. 9,186,338B2) and its higher derivatives such as octinamide, decamide which improve the absorption of various poorly soluble drugs was used. AvignaSOL as 1-70% ww % assisted the solubilization of free base as 1 gm/20 mL of water. The solubility of free base in water assisted its direct use in various formulation such as creams, gels, solutions which together with the permeation enhancing effect will be harnessed to improve skin penetration and/or bioavailability and in altering the pharmacokinetics and pharmacodynamics profile of free base.\nThe AvignaSOL having a log P of ˜1.6 hinder the release by increasing the hydrophobicity of the delivery system. […] The combination of compound of formula I with other ingredients including sustained release enhancer with or without AvignaSOL were prepared as novel formulation techniques to improve and/or alter the pharmacokinetics and pharmacodynamics profile of compound of Formula I."}, "[2]": {"settings": "cited from earlier work"}, "[3]": {"settings": "single dose, 2 mg or lower doses; cited from earlier work"}, "[4]": {"target": "T1, S1P1 receptor (Homo sapiens, UniProt P21453)", "T1 sequence (P21453 whole entry)": "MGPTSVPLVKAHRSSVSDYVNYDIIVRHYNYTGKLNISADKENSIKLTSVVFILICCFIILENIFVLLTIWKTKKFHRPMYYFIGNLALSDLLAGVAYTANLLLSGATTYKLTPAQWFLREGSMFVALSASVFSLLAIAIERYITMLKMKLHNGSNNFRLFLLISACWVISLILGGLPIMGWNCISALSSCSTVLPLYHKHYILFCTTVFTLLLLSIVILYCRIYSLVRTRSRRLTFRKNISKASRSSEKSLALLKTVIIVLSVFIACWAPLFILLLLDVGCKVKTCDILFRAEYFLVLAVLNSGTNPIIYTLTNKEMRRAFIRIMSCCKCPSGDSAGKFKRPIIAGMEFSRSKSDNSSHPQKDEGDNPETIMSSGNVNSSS", "settings": "cited from earlier work; for receptor degradation ability: Lucas et al; for activity v/s degradation margin: known S1P receptor modulators"}, "[5]": {"target": "T1, S1P1 receptor", "settings": "Lucas et al; read-out: EC50 at S1P1 receptor in a GTPγS assay; cited from earlier work"}, "[6]": {"system": "EAE", "test": "Animal model of multiple sclerosis (EAE induced with guinea pig MBP)", "type": "in vivo, Lewis rats", "settings": "EAE rats, oral every day until day 26", "procedure": "The oral treatment with a compound of formula (I) was conducted in an animal model of multiple sclerosis. EAE was induced in female Lewis rats with guinea pig MBP (25 μg/rat)."}}}
{"smiles": "CCCOc1ccc(-c2nc(-c3ccc4oc(C(N)(CO)CO)cc4c3)no2)cc1Cl", "note": "[compound of formula I free base]", "values": [{"measurement": "solubility in water", "setting": "[1]", "result": "insoluble in water"}]}
{"smiles": "CCCCCC(=O)N(C)C", "note": "[AvignaSOL, N,N-Dimethyl hexanamide]", "values": [{"measurement": "log P", "setting": "[2]", "result": "~1.6"}]}
{"smiles": "CC(C)Oc1ncc(-c2nc(-c3cccc4c3ccn4CCCC(=O)O)no2)cc1Cl", "note": "[GSK2018682]", "values": [{"measurement": "lymphopenia", "setting": "[3]", "result": "minimal or no lymphopenia"}, {"measurement": "reduction in heart rate", "setting": "[3]", "result": "≥ 10", "unit": "beats"}]}
{"smiles": "CCCCCCCCCCCCC/C=C/[C@@H](O)[C@@H](N)COP(=O)(O)O", "note": "[S1P]", "values": [{"measurement": "receptor degradation ability", "setting": "[4]", "result": 302, "unit": "nM"}, {"measurement": "EC50", "setting": "[5]", "result": 1.2, "unit": "nM"}]}
{"smiles": "CCC/N=C1\\S/C(=C\\c2ccc(OC[C@H](O)CO)c(Cl)c2)C(=O)N1c1ccccc1C", "note": "[Ponesimod]", "values": [{"measurement": "activity v/s degradation margin", "setting": "[4]", "result": "< 2"}]}
{"smiles": "CCc1cc(/C(C)=N/OCc2ccc(C3CCCCC3)c(C(F)(F)F)c2)ccc1CN1CC(C(=O)O)C1", "note": "[BAF-312]", "values": [{"measurement": "activity v/s degradation margin", "setting": "[4]", "result": 2.95}]}
{"smiles": "CCCCCCCCc1ccc(CCC(N)(CO)CO)cc1", "note": "[FTY720]", "values": [{"measurement": "receptor degradation ability", "setting": "[4]", "result": 0.34, "unit": "nM"}, {"measurement": "activity v/s degradation margin", "setting": "[4]", "result": 0.17}, {"measurement": "lymphopenia", "setting": "[6]", "result": "induced at a high level over a long-term period"}]}
